Common to all, as to test: KINOMEscan
Common to all, as to format: binding
Holding throughout (settings): read-out: % control activity remaining

One experiment concerns the target T1, KIT(A829P) (Homo sapiens, UniProt P10721, A829P).
T1 construct: purchased Eurofins DiscoverX KINOMEscan

The target in a further experiment is T2, CLK3 (Homo sapiens, UniProt P49761).
T2 construct: purchased Eurofins DiscoverX KINOMEscan

The next experiment concerns the target T3, EPHA1 (Homo sapiens, UniProt P21709).
T3 construct: purchased Eurofins DiscoverX KINOMEscan
T3 sequence (P21709 26-976): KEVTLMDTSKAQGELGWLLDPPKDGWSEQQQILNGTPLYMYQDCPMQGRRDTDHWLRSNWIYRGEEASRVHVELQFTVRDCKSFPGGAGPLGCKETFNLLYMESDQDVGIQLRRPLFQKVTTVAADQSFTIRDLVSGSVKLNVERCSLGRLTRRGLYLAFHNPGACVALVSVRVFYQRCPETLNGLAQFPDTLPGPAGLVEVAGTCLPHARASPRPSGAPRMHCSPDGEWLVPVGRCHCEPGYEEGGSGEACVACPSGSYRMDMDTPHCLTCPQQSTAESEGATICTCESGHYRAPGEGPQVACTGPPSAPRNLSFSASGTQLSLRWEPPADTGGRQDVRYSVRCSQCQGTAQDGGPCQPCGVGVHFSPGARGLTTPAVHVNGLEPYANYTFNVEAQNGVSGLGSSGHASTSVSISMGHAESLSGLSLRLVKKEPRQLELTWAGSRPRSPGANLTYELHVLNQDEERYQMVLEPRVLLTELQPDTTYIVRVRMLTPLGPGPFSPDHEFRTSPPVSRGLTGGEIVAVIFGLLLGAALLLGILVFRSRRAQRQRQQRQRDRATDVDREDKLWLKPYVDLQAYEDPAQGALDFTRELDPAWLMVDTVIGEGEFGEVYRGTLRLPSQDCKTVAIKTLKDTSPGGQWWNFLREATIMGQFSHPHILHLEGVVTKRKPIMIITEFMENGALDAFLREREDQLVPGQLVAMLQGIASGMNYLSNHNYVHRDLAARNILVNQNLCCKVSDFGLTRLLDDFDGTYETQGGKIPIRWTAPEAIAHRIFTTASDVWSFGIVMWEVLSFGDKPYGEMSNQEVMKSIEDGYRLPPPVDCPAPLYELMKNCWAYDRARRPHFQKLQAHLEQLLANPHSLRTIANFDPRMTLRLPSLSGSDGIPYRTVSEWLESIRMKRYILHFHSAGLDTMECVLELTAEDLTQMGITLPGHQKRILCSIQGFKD

The target of another experiment is T4, PIK3C2G (Homo sapiens, UniProt O75747).
T4 construct: purchased Eurofins DiscoverX KINOMEscan
T4 sequence (O75747 1-1486): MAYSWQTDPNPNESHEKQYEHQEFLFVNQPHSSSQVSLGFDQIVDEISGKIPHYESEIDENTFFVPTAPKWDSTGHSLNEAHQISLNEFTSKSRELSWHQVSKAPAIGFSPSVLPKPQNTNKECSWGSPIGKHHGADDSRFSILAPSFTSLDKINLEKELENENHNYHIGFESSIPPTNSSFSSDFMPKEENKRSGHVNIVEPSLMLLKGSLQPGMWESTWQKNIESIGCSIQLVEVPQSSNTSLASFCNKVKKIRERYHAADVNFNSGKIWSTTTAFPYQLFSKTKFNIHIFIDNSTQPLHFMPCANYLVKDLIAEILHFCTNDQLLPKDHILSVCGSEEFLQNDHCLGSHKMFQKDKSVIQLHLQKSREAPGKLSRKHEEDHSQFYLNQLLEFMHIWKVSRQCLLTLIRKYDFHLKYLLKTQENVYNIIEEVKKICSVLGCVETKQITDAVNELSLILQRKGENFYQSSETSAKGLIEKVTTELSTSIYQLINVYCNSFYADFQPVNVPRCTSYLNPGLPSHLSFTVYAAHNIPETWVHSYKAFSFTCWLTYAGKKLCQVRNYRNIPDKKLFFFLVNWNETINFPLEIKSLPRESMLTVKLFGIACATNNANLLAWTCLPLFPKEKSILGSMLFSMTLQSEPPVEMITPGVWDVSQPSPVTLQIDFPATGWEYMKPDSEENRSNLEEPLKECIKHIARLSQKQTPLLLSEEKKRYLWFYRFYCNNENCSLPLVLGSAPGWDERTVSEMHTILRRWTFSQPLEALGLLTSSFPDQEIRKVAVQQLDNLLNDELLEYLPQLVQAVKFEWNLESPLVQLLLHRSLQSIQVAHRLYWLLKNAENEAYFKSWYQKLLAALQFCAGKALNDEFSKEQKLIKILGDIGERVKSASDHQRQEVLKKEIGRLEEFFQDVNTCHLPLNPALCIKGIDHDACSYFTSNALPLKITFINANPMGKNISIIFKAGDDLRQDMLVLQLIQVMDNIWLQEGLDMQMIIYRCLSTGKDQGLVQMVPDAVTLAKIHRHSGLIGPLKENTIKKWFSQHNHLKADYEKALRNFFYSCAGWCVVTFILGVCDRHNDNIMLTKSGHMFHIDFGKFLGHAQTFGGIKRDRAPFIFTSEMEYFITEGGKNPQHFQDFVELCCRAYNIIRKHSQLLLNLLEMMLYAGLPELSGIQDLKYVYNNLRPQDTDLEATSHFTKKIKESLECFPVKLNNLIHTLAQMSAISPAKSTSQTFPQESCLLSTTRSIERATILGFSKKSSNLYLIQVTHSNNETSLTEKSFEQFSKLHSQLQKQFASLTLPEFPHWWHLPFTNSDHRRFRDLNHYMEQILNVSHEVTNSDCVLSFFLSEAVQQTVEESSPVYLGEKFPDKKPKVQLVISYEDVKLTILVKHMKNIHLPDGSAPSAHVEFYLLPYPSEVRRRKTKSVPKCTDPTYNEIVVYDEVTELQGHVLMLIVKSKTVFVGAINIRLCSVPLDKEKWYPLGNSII

Another experiment addresses T5, PIM3 (Homo sapiens, UniProt Q86V86).
T5 construct: purchased Eurofins DiscoverX KINOMEscan

The target of the next experiment is T6, RIPK2 (Homo sapiens, UniProt O43353).
T6 construct: purchased Eurofins DiscoverX KINOMEscan

A further experiment deals with T7, PIK3CA(H1047Y) (Homo sapiens, UniProt P42336, H1047Y).
T7 construct: purchased Eurofins DiscoverX KINOMEscan

The target of the next experiment is T8, BIKE (Homo sapiens, UniProt Q9NSY1).
T8 construct: purchased Eurofins DiscoverX KINOMEscan

Molecules are shown by their SMILES.

T2 sequence (P49761 whole entry): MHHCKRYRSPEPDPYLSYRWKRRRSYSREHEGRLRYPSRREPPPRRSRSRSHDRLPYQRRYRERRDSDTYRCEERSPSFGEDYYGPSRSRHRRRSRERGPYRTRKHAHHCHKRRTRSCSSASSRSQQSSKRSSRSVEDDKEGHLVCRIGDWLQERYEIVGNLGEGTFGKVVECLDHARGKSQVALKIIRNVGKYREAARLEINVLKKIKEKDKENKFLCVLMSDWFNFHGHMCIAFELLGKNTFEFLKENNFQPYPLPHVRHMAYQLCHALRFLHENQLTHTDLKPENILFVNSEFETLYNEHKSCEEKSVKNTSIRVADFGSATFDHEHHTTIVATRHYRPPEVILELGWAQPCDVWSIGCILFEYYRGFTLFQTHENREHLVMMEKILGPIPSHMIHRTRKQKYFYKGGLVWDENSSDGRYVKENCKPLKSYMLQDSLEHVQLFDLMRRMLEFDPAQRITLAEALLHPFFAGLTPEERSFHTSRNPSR
T6 sequence (O43353 whole entry): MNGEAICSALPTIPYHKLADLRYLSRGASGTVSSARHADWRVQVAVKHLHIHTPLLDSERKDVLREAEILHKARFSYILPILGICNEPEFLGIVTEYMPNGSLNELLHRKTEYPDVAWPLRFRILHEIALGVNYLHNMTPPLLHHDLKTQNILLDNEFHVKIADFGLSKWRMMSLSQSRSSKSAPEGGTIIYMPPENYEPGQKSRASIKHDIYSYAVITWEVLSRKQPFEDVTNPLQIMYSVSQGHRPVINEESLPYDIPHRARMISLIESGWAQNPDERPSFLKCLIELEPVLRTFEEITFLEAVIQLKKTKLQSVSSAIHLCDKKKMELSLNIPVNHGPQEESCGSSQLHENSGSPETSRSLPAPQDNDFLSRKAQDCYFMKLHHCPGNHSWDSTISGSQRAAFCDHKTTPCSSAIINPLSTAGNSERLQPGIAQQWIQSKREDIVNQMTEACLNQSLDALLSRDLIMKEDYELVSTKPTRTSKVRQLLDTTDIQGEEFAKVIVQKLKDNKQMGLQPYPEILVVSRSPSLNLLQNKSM
T8 sequence (Q9NSY1 whole entry): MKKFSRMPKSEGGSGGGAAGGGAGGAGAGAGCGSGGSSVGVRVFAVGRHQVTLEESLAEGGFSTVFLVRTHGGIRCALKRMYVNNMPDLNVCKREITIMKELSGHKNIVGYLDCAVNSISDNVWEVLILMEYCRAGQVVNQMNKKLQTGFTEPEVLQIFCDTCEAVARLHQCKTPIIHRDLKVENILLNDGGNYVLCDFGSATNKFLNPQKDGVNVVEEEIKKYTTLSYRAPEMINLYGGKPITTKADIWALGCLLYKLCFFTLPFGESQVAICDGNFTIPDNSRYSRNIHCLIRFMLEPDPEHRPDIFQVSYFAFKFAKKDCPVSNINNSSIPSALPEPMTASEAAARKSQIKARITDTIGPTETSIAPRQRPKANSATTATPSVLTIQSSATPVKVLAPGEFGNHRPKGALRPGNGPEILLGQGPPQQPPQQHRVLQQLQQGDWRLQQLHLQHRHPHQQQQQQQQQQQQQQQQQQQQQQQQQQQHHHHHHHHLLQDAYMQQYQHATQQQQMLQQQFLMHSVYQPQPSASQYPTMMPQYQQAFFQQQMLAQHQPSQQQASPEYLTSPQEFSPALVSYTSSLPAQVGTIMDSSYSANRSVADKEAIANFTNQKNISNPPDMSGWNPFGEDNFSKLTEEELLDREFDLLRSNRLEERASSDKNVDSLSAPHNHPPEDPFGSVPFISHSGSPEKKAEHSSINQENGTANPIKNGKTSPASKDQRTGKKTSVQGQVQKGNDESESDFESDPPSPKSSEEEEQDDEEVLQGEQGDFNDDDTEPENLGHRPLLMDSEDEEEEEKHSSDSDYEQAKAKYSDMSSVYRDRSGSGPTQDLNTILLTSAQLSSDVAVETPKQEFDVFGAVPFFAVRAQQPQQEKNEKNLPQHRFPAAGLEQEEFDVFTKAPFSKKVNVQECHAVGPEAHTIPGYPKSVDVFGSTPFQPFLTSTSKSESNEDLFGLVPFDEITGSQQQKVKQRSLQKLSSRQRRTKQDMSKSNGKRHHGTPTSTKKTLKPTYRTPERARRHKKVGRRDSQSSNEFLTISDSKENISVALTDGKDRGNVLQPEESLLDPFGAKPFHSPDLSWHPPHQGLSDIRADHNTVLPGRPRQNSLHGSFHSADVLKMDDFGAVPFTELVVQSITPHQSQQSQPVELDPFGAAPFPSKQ
T1 sequence (P10721 26-976 A829P): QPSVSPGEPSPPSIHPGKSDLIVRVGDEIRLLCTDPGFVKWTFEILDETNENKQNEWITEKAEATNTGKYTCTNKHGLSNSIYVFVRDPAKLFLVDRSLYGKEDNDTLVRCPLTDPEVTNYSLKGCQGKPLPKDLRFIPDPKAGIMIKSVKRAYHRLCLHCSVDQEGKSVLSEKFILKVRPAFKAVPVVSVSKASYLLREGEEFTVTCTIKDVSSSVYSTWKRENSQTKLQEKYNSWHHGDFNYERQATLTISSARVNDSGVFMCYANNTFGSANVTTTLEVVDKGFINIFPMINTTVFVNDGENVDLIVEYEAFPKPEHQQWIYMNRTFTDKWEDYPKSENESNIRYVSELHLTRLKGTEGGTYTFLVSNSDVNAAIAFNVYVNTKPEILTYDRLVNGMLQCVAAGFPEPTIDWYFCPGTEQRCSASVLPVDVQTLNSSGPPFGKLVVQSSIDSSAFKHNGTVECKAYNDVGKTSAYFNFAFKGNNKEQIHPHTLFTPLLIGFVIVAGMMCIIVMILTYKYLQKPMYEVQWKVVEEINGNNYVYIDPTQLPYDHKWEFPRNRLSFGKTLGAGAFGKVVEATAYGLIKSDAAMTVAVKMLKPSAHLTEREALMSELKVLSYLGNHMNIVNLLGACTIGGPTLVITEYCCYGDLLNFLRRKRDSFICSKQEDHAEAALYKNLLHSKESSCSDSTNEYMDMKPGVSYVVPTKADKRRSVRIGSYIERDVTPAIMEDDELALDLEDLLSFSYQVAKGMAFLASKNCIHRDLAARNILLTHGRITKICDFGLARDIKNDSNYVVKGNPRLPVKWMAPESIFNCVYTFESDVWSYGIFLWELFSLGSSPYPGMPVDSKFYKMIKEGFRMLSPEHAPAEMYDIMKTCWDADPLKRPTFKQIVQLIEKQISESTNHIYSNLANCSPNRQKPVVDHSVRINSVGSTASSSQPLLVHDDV
T7 sequence (P42336 whole entry H1047Y): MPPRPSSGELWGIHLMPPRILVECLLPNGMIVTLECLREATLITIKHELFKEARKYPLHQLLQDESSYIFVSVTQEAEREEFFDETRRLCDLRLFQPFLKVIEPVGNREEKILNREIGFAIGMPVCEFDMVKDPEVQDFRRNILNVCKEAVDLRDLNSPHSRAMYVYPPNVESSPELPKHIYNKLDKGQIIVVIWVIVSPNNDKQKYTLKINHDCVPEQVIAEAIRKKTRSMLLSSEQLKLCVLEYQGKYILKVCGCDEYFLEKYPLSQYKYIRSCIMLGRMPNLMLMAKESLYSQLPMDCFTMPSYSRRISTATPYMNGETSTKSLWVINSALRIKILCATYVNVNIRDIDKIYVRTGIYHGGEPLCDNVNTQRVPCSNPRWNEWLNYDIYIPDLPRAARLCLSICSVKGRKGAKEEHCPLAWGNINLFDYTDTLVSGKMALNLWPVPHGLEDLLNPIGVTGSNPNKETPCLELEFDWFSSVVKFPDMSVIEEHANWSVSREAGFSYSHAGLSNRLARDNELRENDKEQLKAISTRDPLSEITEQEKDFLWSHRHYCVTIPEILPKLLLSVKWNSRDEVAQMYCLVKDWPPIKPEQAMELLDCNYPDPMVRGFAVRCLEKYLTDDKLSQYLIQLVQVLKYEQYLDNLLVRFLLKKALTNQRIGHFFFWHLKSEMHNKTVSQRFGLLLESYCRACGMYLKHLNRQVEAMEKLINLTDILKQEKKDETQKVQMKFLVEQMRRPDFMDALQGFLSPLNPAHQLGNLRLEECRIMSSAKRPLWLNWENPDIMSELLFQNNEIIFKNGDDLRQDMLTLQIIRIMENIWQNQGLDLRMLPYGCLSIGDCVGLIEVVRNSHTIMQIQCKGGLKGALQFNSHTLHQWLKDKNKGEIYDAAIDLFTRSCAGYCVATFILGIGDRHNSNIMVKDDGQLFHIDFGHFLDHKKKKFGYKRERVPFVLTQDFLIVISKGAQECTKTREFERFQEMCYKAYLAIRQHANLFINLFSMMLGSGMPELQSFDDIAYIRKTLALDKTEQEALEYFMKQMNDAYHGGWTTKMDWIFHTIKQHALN

As to `Clc1cc(NCC2CC2)c2ncc(-c3ccc4[nH]ncc4c3)n2n1` [compound 2, 6-Chloro-N-(cyclopropylmethyl)-3-(1H-indazol-5-yl)imidazo[1,2-b]pyridazin-8-amine], the remaining binding at 1 µM at KIT(A829P) amounted to 75%; at CLK3, 70%; on EPHA1, 80%; on PIK3C2G it was 91%; at PIM3, 95%; on RIPK2, 88%. Further, the remaining binding at 1 µM on PIK3CA(H1047Y) amounted to 89%; on BIKE it was 34%.

Regarding `O=C(CN1CCOCC1)N[C@H]1CC[C@H](Nc2cc(Cl)nn3c(-c4ccc5[nH]ncc5c4)cnc23)CC1` [compound 26], the remaining binding at 1 µM is 45% on KIT(A829P); 52% on CLK3; 84% on EPHA1; 80% at PIK3C2G; 71% at PIM3; 61% on RIPK2. The remaining binding at 1 µM turned out to be 82% at PIK3CA(H1047Y) and 13% on BIKE.

Turning to `CN1CCC(CNc2cc(Cl)nn3c(-c4cc5nc(Nc6ccccc6)[nH]c5cc4F)cnc23)CC1` [compound 31, 6-Chloro-3-(6-fluoro-2-(phenylamino)-1H-benzo[d]imidazol-5-yl)-N-((1-methylpiperidin-4-yl)methyl)imidazo[1,2-b]pyridazin-8-amine], the remaining binding at 1 µM is 94% on KIT(A829P); 100% at CLK3; 99% on EPHA1; 82% on PIK3C2G; 92% on PIM3; 100% on RIPK2. Besides, the values for the remaining binding at 1 µM at PIK3CA(H1047Y) and on BIKE were 100% and 91%, respectively.

The values above are taken from publication PMC6437697 (Journal of Medicinal Chemistry, 2019).
